Measurements from ChEMBL document CHEMBL1268826, “Discovery of the inhibitors of tumor necrosis factor alpha with structure-based virtual screening” (Bioorg Med Chem Lett, 2010).

Molecular target: T1, Tumor necrosis factor (Mus musculus) (UniProt P06804)
T1 sequence (whole entry): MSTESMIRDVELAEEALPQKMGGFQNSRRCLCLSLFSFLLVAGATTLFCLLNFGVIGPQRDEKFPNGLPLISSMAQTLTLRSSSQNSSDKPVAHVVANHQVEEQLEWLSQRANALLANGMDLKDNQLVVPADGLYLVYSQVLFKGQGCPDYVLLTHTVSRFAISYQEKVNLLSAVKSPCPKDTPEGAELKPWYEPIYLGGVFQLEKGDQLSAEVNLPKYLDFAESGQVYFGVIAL
Assay: Inhibition of TNFalpha in LPS-stimulated mouse RAW264.7 cells at 10 uM after 2 hrs treated after 14 hrs of LPS challenge by FACS analysis
Type: cell-based

SMILES	inhibition
Cc1cccc(N2C(=O)NC(=O)/C(=C/c3ccc(-c4ccc(C(=O)O)c(Cl)c4)o3)C2=O)c1	64%
O=C1NC(=O)N(c2ccc3c(c2)OCO3)C(=O)/C1=C\c1cn(Cc2ccccc2Cl)c2ccccc12	54.6%
NC(=O)c1cc(-c2csc(C3COc4ccccc4O3)n2)ccc1OCc1ccccc1 (stereo unspecified)	52.6%
c1ccc(-n2ncc3c(NCCN4CCCCC4)ncnc32)cc1	45.8%
O=C1NC(=O)N(c2ccccc2)C(=O)/C1=C\c1ccccc1OCc1ccccc1Cl	47.9%
O=c1cc(-c2ccccc2)oc2cc(O)c(O)c(O)c12	71.3%
